Laboratory results published in US6083920A, “Compositions for modulating intracellular inositol trisphosphate concentration” (priority 1996, dated 2000).

How the values were obtained:
[1] = test system: phospholipase C isoforms beta, delta, and gamma; details: for effect on KM for substrate phosphatidylinositol bis-phosphate: 10 μM lysocerebroside, 5 μM lysosphingomyelin; for diminution in Vmax / increase in calcium ion concentration required for optimal activity: 10 μM lysocerebroside or 5 μM lysosphingomyelin
Description: The effects of sphingosine, lysocerebroside, and lysosphingomyelin on the kinetics of pure, immunologically isolated phospholipase C isoforms beta, delta, and gamma (which are commercially available) was examined. For each isoform, 10 μM sphingosine was added to a reaction medium consisting of 1 μg phospholipase C isoform/ml, Tris-malate buffer (50 mM, pH 7.0) containing 100 μM phosphatidyl inositol bis-phosphate tri-ammonium salt, 0.01 μCi tritium labeled phosphatidyl inositol bis-phosphate, 100 mM NaCl, 10 mM CaCl2, and 5 mM 2-merceptoethanol.

[2] = test system: bradykinin-stimulated phosphoinositide signalling in PC12 cells; test: Phosphoinositide hydrolysis assay (InsP3 production) in PC12 cells; assay type: cell-based, rat; details: for sensitivity of PC12 cells to bradykinin: at relatively moderate levels
Excerpt: PC12 cells, from a rat adrenal pheochromocytoma cell line, were used as a model of neurons from the peripheral nervous system. These cells were obtained from a common laboratory cell culture stock and grown in plastic culture flasks in Dulbecco's modified Eagle's medium (DMEM) supplemented with 5% heat-inactivated horse serum and 10% heat-inactivated fetal calf serum (PC12 cells are also available from the American Type Culture Collection under the Accession number CRL 1721). The cells were grown at 37° C. in 5% CO2 in air until a confluent monolayer formed. The cells were dispersed into 24-well plastic tissue culture plates at a density of 10^5 cells per well and used for the phosphoinositide hydrolysis assays (as described in EXAMPLE 2).
(§1) Receptor-stimulated and basal unstimulated hydrolysis of phosphoinositides was measured by the following procedure. In order to label the cellular phosphoinositides metabolically, the primary cultures of chick cortical neurons (described in Example 1) were incubated overnight with 0.5 ml Dulbecco's modified Eagle's medium containing 1 μCi [^3 H]myo-inositol per well. The cells were then washed twice with 1 ml Dulbecco's phosphate-buffered saline (PBS) and 0.5 ml of PBS containing 4.5 g/L glucose was added. Sphingosine, psychosine, lysosulphatide, or lysosphingomyelin, prepared as the hydrochloride salt dissolved in water, were then added to produce the desired extracellular concentration in specific wells, and the 24-well plates were swirled gently on a rotary shaker for 1 hr at 23° C. The cells were then washed twice with 1 ml PBS, and pre-incubated for 15 minutes at 37° C. with 0.5 ml PBS containing 10 mM LiCl and the compound to be tested was added. After 30 minutes, the experiment was terminated by adding 1 ml of ice-cold methanol to each well and transferring the material in each well to polypropylene tubes that contained 0.4 ml water and 1 ml chloroform. The tubes were vortexed thoroughly, then centrifuged at 500×g for 5 minutes to separate the aqueous and chloroform phases. For each sample, a 1.5-ml aliquot of the upper (aqueous) phase was applied to a small column containing BioRad AG1X8 resin (formate form). Free [^3 H]inositol and [^3 H]glycerophosphoinositol were washed through the column with 5 ml of a solution containing 5 mM sodium borate and 60 mM sodium formate. The total phosphorylated [^3 H] inositol fraction was eluted from the column for radiometric scintillation spectrometry analysis with 3 ml 1.0 M ammonium formate/0.1 M formic acid;
(§2) In addition, a 0.5 ml aliquot of the lower (chloroform) phase of each sample was analyzed radiometrically by scintillation spectrometry in order to determine the quantity of lipid-bound [^3 H]myo-inositol. Estimation of phosphoinositide hydrolysis by phospholipase C is based upon the quantity of [^3 H]inositol phosphates produced, and is expressed as the percentage of the latter relative to total free and componential [^3 H]inositol (dpm ammonium formate+dpm chloroform fractions).
PC12 cells display a strong phospholipase C-linked metabotropic receptor response to bradykinin, an effective pain producing agonist.
The degree of InsP3 inhibition is a function of the log of the psychosine concentration for a fixed time of exposure (FIG. 4). Exposing PC12 cells to 50 μM exogenous psychosine for 30 minutes was sufficient to reduce a metabotropic response to 10 μM bradykinin to half maximum.

[3] = test system: InsP3 signalling in primary chick cortical neurons; test: Phosphoinositide hydrolysis assay (InsP3 signalling) in cultured primary cortical neurons; assay type: cell-based; details: for inhibitory effect on InsP3 enhancement caused by sphingosine or metabotropic glutamate receptor agonists: cortical neurons
Description: Primary cultures of neurons were prepared from the telencephalon of white Leghorn chick embryos on the eighth day of their development (Rosenberg et al., J.Biol. Chem. 267:10601-10612, 1992). The neurons were seeded in 24-well plastic tissue culture plates that had been coated with L-polylysine. The density of the neurons was 10^5 cells per well, and they were cultured in Dulbecco's modified Eagle's medium/Ham's high glucose F-12 medium (1:1, vol:vol) containing 500 ng/L sodium selenite, 500 μg/L transferrin, and 165 pmole/L EGF. The cultures were maintained at 37° C. under 5% CO2 in air for 4 days, by which time the cells had differentiated into neurite-bearing cortical granulocytic neurons. These cultures of mature embryonic neurons were used for phosphoinositide hydrolysis assays (as described in Example 2).
as §1, with “and the 24-well plates were swirled gently on a rotary shaker for 1 hr at 23° C.” left out, “After 30 minutes, the experiment was terminated by adding 1 ml of ice-cold methanol to each well and transferring the material in each well to polypropylene tubes that contained 0.4 ml water and 1 ml chloroform.” left out
as §2
Cultured primary chick cortical neurons that were prelabeled with [^3 H]myo-inositol were examined for enhanced InsP3 signalling in response to various agonists including glutamate, aspartate, and the metabotropic […] receptor agonists ibotenate and quisqualate.

`CCCCCCCCCCCCC/C=C/[C@@H](O)[C@@H](N)CO` [sphingosine] was tested, and the “calcium ion concentration required for optimal activity” value ([1]; 10 μM sphingosine) was “decrease”, the “effect on KM for substrate phosphatidylinositol bis-phosphate” value (“effect on KM” below) ([1]; 10 μM sphingosine) was “no effect” and the “basal, unstimulated level of InsP3 production” value ([2]; PC12 cells) was “tonically upregulated”. The “basal, unstimulated InsP3 level in cortical neurons” value [3] was “tonically enhanced”.
For `CCCCCCCCCCCCC/C=C/[C@@H](O)[C@@H](N)COP(=O)([O-])OCC[N+](C)(C)C` [lysosphingomyelin, sphingosyl phosphoryicholine], the “diminution in Vmax” value [1] was 60%±10%, the “increase in calcium ion concentration required for optimal activity” value [1] was 5 fold and the “effect on KM” value ([1]; 10 μM sphingosine) was “no change”. The InsP3 production ([2]; PC12 cells) was “strongly inhibit”, the “sensitivity of PC12 cells to bradykinin” value [2] was “can entirely block” and the “inhibitory effect on InsP3 enhancement caused by sphingosine or metabotropic glutamate receptor agonists” value [3] was “blocked this enhancement”.
For `CCCCCCCCCCCCC/C=C/[C@@H](O)[C@@H](N)CO[C@@H]1O[C@H](CO)[C@H](O)[C@H](O)[C@H]1O` [psychosine, lysocerebroside], the “diminution in Vmax” value [1] was 60%±10%, the “increase in calcium ion concentration required for optimal activity” value [1] was 5 fold and the “effect on KM” value ([1]; 10 μM sphingosine) was “no change”. The InsP3 production ([2]; PC12 cells) was “strongly inhibit”, the IC50 ([2]; PC12 cells, 30 minutes exposure, 10 μM bradykinin, read-out: exogenous concentration reducing metabotropic response to bradykinin to half maximum) was 50 µM and the “sensitivity of PC12 cells to bradykinin” value [2] was “can entirely block”. For the same compound, the “inhibitory effect on InsP3 enhancement caused by sphingosine or metabotropic glutamate receptor agonists” value [3] was “blocked this enhancement”.
`N[C@@H](Cn1oc(=O)[nH]c1=O)C(=O)O` [Quisqualate, quisqualate] was tested, and the “Ins-P-n, modulator Lsm:Sph” value ([3]; 20 μM Lysosphingomyelin + 20 μM Sphingosine, then 100 μM agonist 20 min, normalized to control = 1.00) was 2.25 ± 0.15, the “Ins-P-n, modulator Psy:Sph” value ([3]; 20 μM Psychosine + 20 μM Sphingosine, then 100 μM agonist 20 min, normalized to control = 1.00) was 3.30 ± 0.25 and the fold induction at 100 µM ([3]; Gallus gallus, Cortical neurone, 20 min, read-out: Ins-P-n (agonist alone)) was 3 ± 0.05.
